Converted amounts (≈) assume the structure as drawn.
Settings: for aqueous solubility: pH 6.8

## CCC1(CC)NC(=O)N(CC(=O)N2CCOCC3(CCCC3)C2)C1=O
  MDR1-MDCK efflux ratio: 81.5
  intrinsic clearance, human liver microsomes: 30.6 mL/min/kg
  intrinsic clearance, rat liver microsomes: 217 mL/min/kg
  aqueous solubility: 63.4 µg/mL (≈ 180 µM)

## O=C(NCCc1ccccc1)c1ccc(NC(=O)N2CCCCc3ccccc32)cc1
  MDR1-MDCK efflux ratio: 2.11
  fraction unbound, human plasma: 0.0119
  intrinsic clearance, human liver microsomes: 256 mL/min/kg

## NCCOc1cccc(C(F)(F)F)n1
  aqueous solubility: 21.8 µg/mL (≈ 105 µM)

## N#Cc1ccc(Cn2cncn2)c(F)c1
  MDR1-MDCK efflux ratio: 0.697
  intrinsic clearance, human liver microsomes: ≤ 4.74 mL/min/kg
  intrinsic clearance, rat liver microsomes: ≤ 10.7 mL/min/kg
  aqueous solubility: 26.5 µg/mL (≈ 131 µM)

## Cc1nn(C)c(C)c1C(=O)NCc1ccccc1
  MDR1-MDCK efflux ratio: 0.786
  intrinsic clearance, human liver microsomes: ≤ 4.74 mL/min/kg
  intrinsic clearance, rat liver microsomes: ≤ 10.7 mL/min/kg
  aqueous solubility: 54.7 µg/mL (≈ 225 µM)

## CNC(=O)CN1CCCN(C(=O)c2c(C)nn(-c3ccccc3)c2Cl)CC1
  MDR1-MDCK efflux ratio: 82.1
  intrinsic clearance, human liver microsomes: ≤ 4.74 mL/min/kg
  intrinsic clearance, rat liver microsomes: 87.7 mL/min/kg
  aqueous solubility: 49.9 µg/mL (≈ 128 µM)

## COc1cc(C#N)ccc1Cn1ccnc1C(C)C
  MDR1-MDCK efflux ratio: 2.82
  intrinsic clearance, human liver microsomes: 17.3 mL/min/kg
  intrinsic clearance, rat liver microsomes: 166 mL/min/kg

## O=C(CN1CCCC(c2nc3ccccc3o2)C1)Nc1ccc(OC(F)(F)F)cc1 (stereo unspecified)
  MDR1-MDCK efflux ratio: 0.983
  intrinsic clearance, human liver microsomes: 134 mL/min/kg
  intrinsic clearance, rat liver microsomes: 496 mL/min/kg
  aqueous solubility: 6.85 µg/mL (≈ 16.3 µM)

## O=C(Nc1ccc(N2CCCC2)cn1)c1ccc(-c2cnco2)cc1
  MDR1-MDCK efflux ratio: 0.338
  intrinsic clearance, human liver microsomes: 27.2 mL/min/kg
  intrinsic clearance, rat liver microsomes: 190 mL/min/kg

## CC(=O)N1CCN(c2c(Cl)cccc2NC(=O)COc2ccc(C(C)C)cc2)CC1
  MDR1-MDCK efflux ratio: 2.13
  intrinsic clearance, human liver microsomes: 134 mL/min/kg
  intrinsic clearance, rat liver microsomes: 1990 mL/min/kg
  aqueous solubility: 2.7 µg/mL (≈ 6.28 µM)

## CCOc1cc(CNc2ccc(N3CCOCC3)c(C(=O)O)c2)cc(Cl)c1OC
  intrinsic clearance, human liver microsomes: 21.1 mL/min/kg
  intrinsic clearance, rat liver microsomes: 154 mL/min/kg
  aqueous solubility: 22.7 µg/mL (≈ 54 µM)

## Cc1cc(C)cc(OCCN(C)C(=O)NCCN2CCCCC2=O)c1
  MDR1-MDCK efflux ratio: 29.2
  intrinsic clearance, human liver microsomes: 150 mL/min/kg
  intrinsic clearance, rat liver microsomes: 1300 mL/min/kg

## O=C(CN1CCCC1=O)NCC1(CO)CCCC1
  MDR1-MDCK efflux ratio: 2.26
  intrinsic clearance, human liver microsomes: ≤ 4.74 mL/min/kg
  intrinsic clearance, rat liver microsomes: ≤ 10.7 mL/min/kg

## CCCCNC(=O)c1cccc2ncccc12
  MDR1-MDCK efflux ratio: 0.631
  intrinsic clearance, human liver microsomes: ≤ 4.74 mL/min/kg
  intrinsic clearance, rat liver microsomes: 28 mL/min/kg
  aqueous solubility: 29.3 µg/mL (≈ 128 µM)

## CCCn1ncc2[nH]c(C3CCCCC3)nc21
  MDR1-MDCK efflux ratio: 1.26
  intrinsic clearance, human liver microsomes: 19.9 mL/min/kg
  intrinsic clearance, rat liver microsomes: 83.7 mL/min/kg
  aqueous solubility: 22.4 µg/mL (≈ 96.5 µM)

## O=c1ccc(-c2ccc(F)cc2)nn1Cc1ccncc1
  MDR1-MDCK efflux ratio: 0.674
  intrinsic clearance, human liver microsomes: 7.74 mL/min/kg
  intrinsic clearance, rat liver microsomes: 56.5 mL/min/kg
  aqueous solubility: 46 µg/mL (≈ 163 µM)

## c1csc(-c2csc3nc(CN4CCOCC4)nc(N4CCc5[nH]ncc5C4)c23)c1
  MDR1-MDCK efflux ratio: 83.5
  intrinsic clearance, human liver microsomes: 559 mL/min/kg
  intrinsic clearance, rat liver microsomes: 1320 mL/min/kg
  aqueous solubility: 49 µg/mL (≈ 112 µM)

## CCCc1ncncc1C(=O)NCc1noc(C2CC2)n1
  MDR1-MDCK efflux ratio: 1.73
  intrinsic clearance, human liver microsomes: ≤ 4.74 mL/min/kg
  intrinsic clearance, rat liver microsomes: 112 mL/min/kg

## N#Cc1nncn1CC(=O)Nc1ccc2ccccc2c1
  aqueous solubility: 22.8 µg/mL (≈ 82.1 µM)

## O=C(c1ccc(Cn2nnc(-c3cccc(F)c3)n2)cc1)N1CCCC1
  MDR1-MDCK efflux ratio: 0.793
  intrinsic clearance, human liver microsomes: 12.1 mL/min/kg
  intrinsic clearance, rat liver microsomes: 125 mL/min/kg
  aqueous solubility: 10.8 µg/mL (≈ 30.7 µM)

## CCn1ncc(CN(C)C(=O)c2ccc(-c3nc(C)cc(C)n3)cc2)c1C
  MDR1-MDCK efflux ratio: 4.16
  intrinsic clearance, human liver microsomes: 19.3 mL/min/kg
  intrinsic clearance, rat liver microsomes: 278 mL/min/kg

## O=C(NCc1cccc(O)c1)Nc1nc(-c2ccncc2)cs1
  intrinsic clearance, human liver microsomes: 97.6 mL/min/kg
  intrinsic clearance, rat liver microsomes: 246 mL/min/kg

## Cc1nccc(NC(=O)CCc2ccncc2)c1Cl
  MDR1-MDCK efflux ratio: 0.826
  intrinsic clearance, human liver microsomes: ≤ 4.74 mL/min/kg
  intrinsic clearance, rat liver microsomes: 73.1 mL/min/kg

## O=C1N=C(N2CCCCN2)S/C1=C\c1ccc(F)cc1O
  MDR1-MDCK efflux ratio: 1.69
  aqueous solubility: 0.9 µg/mL (≈ 2.93 µM)

## CCc1nnnn1Cc1noc2c1CCCC2
  MDR1-MDCK efflux ratio: 0.792
  intrinsic clearance, human liver microsomes: ≤ 4.74 mL/min/kg
  intrinsic clearance, rat liver microsomes: 60.7 mL/min/kg
  aqueous solubility: 23.2 µg/mL (≈ 99.6 µM)

## C#CCN1CCN(C(=O)CCS(C)(=O)=O)CC1
  intrinsic clearance, human liver microsomes: ≤ 4.74 mL/min/kg
  intrinsic clearance, rat liver microsomes: ≤ 10.7 mL/min/kg
  aqueous solubility: 73.8 µg/mL (≈ 285 µM)

## Cn1cc(C(C)(C)NC(=O)C#Cc2ccc3c(c2)OCO3)cn1
  MDR1-MDCK efflux ratio: 3.89
  intrinsic clearance, human liver microsomes: ≤ 4.74 mL/min/kg
  intrinsic clearance, rat liver microsomes: 51.1 mL/min/kg

## COc1cc(OC)cc(C(=O)NCc2noc(-c3ccccc3)n2)c1
  MDR1-MDCK efflux ratio: 0.335
  intrinsic clearance, human liver microsomes: 34.9 mL/min/kg
  intrinsic clearance, rat liver microsomes: 628 mL/min/kg

## Cc1cncc(C2CCN(Cc3cnccn3)CC2)n1
  MDR1-MDCK efflux ratio: 0.65
  intrinsic clearance, human liver microsomes: ≤ 4.74 mL/min/kg
  intrinsic clearance, rat liver microsomes: 60.6 mL/min/kg
  aqueous solubility: 67.8 µg/mL (≈ 252 µM)

## CCc1ccccc1-c1cn(CCc2cnccn2)nn1
  MDR1-MDCK efflux ratio: 0.783
  intrinsic clearance, human liver microsomes: 24.7 mL/min/kg
  intrinsic clearance, rat liver microsomes: 290 mL/min/kg
  aqueous solubility: 27.6 µg/mL (≈ 99 µM)

## Cc1cc(C#N)cc(N2CCc3c(ncn3CCc3ccccc3)C2)n1
  MDR1-MDCK efflux ratio: 1.22
  intrinsic clearance, human liver microsomes: 975 mL/min/kg
  intrinsic clearance, rat liver microsomes: 3430 mL/min/kg

## Cc1noc(C(C)C)c1C(=O)Nc1ccccn1
  MDR1-MDCK efflux ratio: 0.524
  intrinsic clearance, human liver microsomes: 28.4 mL/min/kg
  intrinsic clearance, rat liver microsomes: 510 mL/min/kg
  aqueous solubility: 58.3 µg/mL (≈ 238 µM)

## CCc1cc(NS(C)(=O)=O)n(C)n1
  MDR1-MDCK efflux ratio: 2.54
  intrinsic clearance, human liver microsomes: ≤ 4.74 mL/min/kg
  intrinsic clearance, rat liver microsomes: ≤ 10.7 mL/min/kg

## CCOC(=O)N1CCN(C(=O)c2ccc3c(c2)OCO3)CC1
  MDR1-MDCK efflux ratio: 0.82
  intrinsic clearance, human liver microsomes: ≤ 4.74 mL/min/kg
  intrinsic clearance, rat liver microsomes: 112 mL/min/kg
  aqueous solubility: 53 µg/mL (≈ 173 µM)

## CC(C)S(=O)(=O)c1ccc2nccc(Nc3ccc4scnc4c3)c2c1
  MDR1-MDCK efflux ratio: 14.6
  aqueous solubility: 38.5 µg/mL (≈ 100 µM)

## CCOc1cc(CN2CCc3c(N)nc(N4CCCC4)nc3C2)ccc1OC
  MDR1-MDCK efflux ratio: 16.6
  intrinsic clearance, human liver microsomes: 26.6 mL/min/kg
  intrinsic clearance, rat liver microsomes: 280 mL/min/kg

## CC(C)Oc1ccc(C#N)cc1NC1CCN(C)CC1
  MDR1-MDCK efflux ratio: 2.51
  intrinsic clearance, human liver microsomes: ≤ 4.74 mL/min/kg
  intrinsic clearance, rat liver microsomes: 100 mL/min/kg

## Cc1ccc(O)c(CN2CCC(c3nc4ccccc4o3)CC2)n1
  MDR1-MDCK efflux ratio: 0.688
  intrinsic clearance, human liver microsomes: 22.2 mL/min/kg
  intrinsic clearance, rat liver microsomes: 229 mL/min/kg

## CC(C)c1c(-c2ccccc2)[n+]([O-])c2c([n+]1[O-])CCC2
  intrinsic clearance, human liver microsomes: ≤ 4.74 mL/min/kg
  intrinsic clearance, rat liver microsomes: 14.3 mL/min/kg

## COc1cc2c(cc1OC)CN(C(=O)C1CCCN(S(=O)(=O)c3ccc(F)cc3)C1)CC2 (stereo unspecified)
  MDR1-MDCK efflux ratio: 5.4
  intrinsic clearance, human liver microsomes: 150 mL/min/kg
  intrinsic clearance, rat liver microsomes: 1220 mL/min/kg
  aqueous solubility: 7.05 µg/mL (≈ 15.2 µM)

## Cc1ccc(C)n1-c1ccc(CNS(C)(=O)=O)cc1
  aqueous solubility: 24.2 µg/mL (≈ 86.9 µM)

## CN(C)c1cncc(-c2ccc(C(=O)NC(C)(C)C)cc2)n1
  MDR1-MDCK efflux ratio: 0.697
  intrinsic clearance, human liver microsomes: 18.7 mL/min/kg
  intrinsic clearance, rat liver microsomes: 483 mL/min/kg

## CN1CCC(=C2c3ccccc3CCc3sccc32)CC1
  MDR1-MDCK efflux ratio: 0.862
  intrinsic clearance, human liver microsomes: 15.1 mL/min/kg
  intrinsic clearance, rat liver microsomes: 2130 mL/min/kg

From the Biogen ADME set (Fang et al. 2023)
